Broadly, the IC50 is the point on the concentration scale where inhibition reaches its midpoint. As a reminder, the DC50 is the concentration giving 50% degradation.

One assay concerns HT1080 cells. The assay is described as follows: Cell viability CCK-8 assay. The class given is cell-based, human. Particulars: Homo sapiens, HT-1080, CCK-8, 48 h, read-out: IC50 (cytotoxicity). The essentials:
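HT1080 cells seeded 24 h, then exposed to serial compound dilutions (final DMSO <0.5% v/v) for 48 or 72 h at 37 °C. Viability by CCK-8 absorbance at 450 nm; IC50 from nonlinear regression, ≥3 independent repeats.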
On the technique in general: Tetrazolium dyes change colour on reduction, which living cells bring about.

A further assay addresses T1, GPX4 (Homo sapiens, UniProt P36969).
T1 sequence (P36969 1-170 isoform P36969-2): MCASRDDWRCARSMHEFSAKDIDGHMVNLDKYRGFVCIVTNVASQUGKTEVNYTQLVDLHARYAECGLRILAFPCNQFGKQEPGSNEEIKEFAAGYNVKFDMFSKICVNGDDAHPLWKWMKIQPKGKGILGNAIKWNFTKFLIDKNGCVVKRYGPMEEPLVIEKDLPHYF
The experiment in a line: GPX4 degradation by western blot in HT1080 cells. The class given is cell-based. More on the design: determine the changes in the endogenous levels of GPX4 by western blot assay; endogenous in cells; host or cells: HT1080 fibrosarcoma cells, including siRNA-knockdown derivatives. Particulars: for remaining activity at 0.5 µM: HT-1080, HT1080 cells, read-out: GPX4 % of control; for remaining activity at 1 µM: read-out: % of control (GPX4/GAPDH). Summed up: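 HT1080 fibrosarcoma cells were treated 24 h with PROTACs at 0.1, 0.3, 1 and 3 µM. Endogenous GPX4 was measured by western blot of RIPA lysates, with band intensities normalized to a loading control.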
(Immunoblotting shows a protein as a band on a membrane.)

Another assay concerns the target T2, GPX1 (Homo sapiens, UniProt P07203).
T2 construct: endogenous in cells; host or cells: HT1080
T2 sequence (P07203 1-203): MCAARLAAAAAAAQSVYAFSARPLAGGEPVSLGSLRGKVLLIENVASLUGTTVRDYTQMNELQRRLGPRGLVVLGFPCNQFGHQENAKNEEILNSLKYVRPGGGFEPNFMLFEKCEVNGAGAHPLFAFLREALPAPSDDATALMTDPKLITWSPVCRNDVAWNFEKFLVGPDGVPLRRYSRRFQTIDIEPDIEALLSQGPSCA
The assay is described as follows: Western blot of GPX1 in HT1080 cells. The class given is cell-based. Particulars: 24 h.

The subject of the next assay is SLC7A11. The experiment in a line: Western blot of SLC7A11 in HT1080 cells. Particulars: 24 h. The class given is cell-based, human.

Like-named read-outs stand apart in the source and are kept apart here.

Take `COc1ccc(-c2nc(-c3cc(C(F)(F)F)cc(C(F)(F)F)c3)n(Cc3ccc(C(=O)NCCOCCOCCOCCn4cc(COc5ccc(N(C(=O)CCl)C(C(=O)NCCc6ccccc6)c6cccs6)cc5Cl)nn4)cc3)c2-c2ccc(OC)cc2)cc1` (stereo not drawn) [GDAz-3, 4-((2-(3,5-bis(trifluoromethyl)phenyl)-4,5-bis(4-methoxyphenyl)-1H-imidazol-1-yl)methyl)-N-(2-(2-(2-(2-(4-((2-chloro-4-(2-chloro-N-(2-oxo-2-(phenethylamino)-1-(thiophen-2-yl)ethyl)acetamido)phenoxy)methyl)-1H-1,2,3-triazol-1-yl)ethoxy)ethoxy)ethoxy)ethyl)benzamide]: the IC50 with HT1080 cells was 280 nM. Moreover, on GPX4 (0.5 µM, 24 h), the “GPX4 degradation in wild-type and CRBN- or VHL-knockdown HT1080 cells” value is on record as “promoted the degradation of GPX4”. Besides, the “GPX4 degradation in BAG3-knockdown cells” value at GPX4 (BAG3 siRNA HT1080 cells, 24 h) is reported as “completely abolished”. Further, on GPX4 (CHIP siRNA HT1080 cells, 24 h), the “GPX4 degradation in CHIP-knockdown cells” value was “did not induce any detectable protein degradation of GPX4”. Besides, on GPX4 (HT1080 cells, 0.1 µM, 24 h), the “Reduction of the GPX4 protein level” value is given as “≈ 50%”. Further, the GPX4 degradation entry at GPX4 (HT1080 cells, 0.3 µM, 24 h (Figure 3A)) is recorded as “effectively triggered substantial GPX4 degradation”. Moreover, on GPX4 (HT1080 cells, 1 µM for 24 h, then rinsed with PBS), the “Sustained GPX4 degradation upon washout” value is on record as “without obvious recovery even 24 h after removal of the degrader”. In addition, the “GPX4 protein level, degradation kinetics” value at GPX4 (HT1080 cells, 1 µM, 8 h) was “obviously reduced GPX4 protein level”; on GPX4 (HT1080 cells, 1 µM, 24 h), “complete GPX4 depletion”. Also, at GPX4 (HT1080 cells, 1 µM, 24 h), the “GPX4 degradation efficiency versus reported GPX4 degraders” value is given as “comparable GPX4 degradation efficiency”. This molecule also had a DC50 at GPX4 (HT1080 cells, 24 h) of 130 nM. The “GPX4 degradation effect in combination with 3-methyladenine (3-MA)” value on GPX4 (HT1080 cells, 24 h) is listed as “partially rescued”. Further, the “GPX4 degradation effect after proteasome inhibitor” value on GPX4 (HT1080 cells, MG132 5 µM for 2 h before GDAz-3 for 24 h) is recorded as “completely abrogated”. Also, the remaining activity at 0.5 µM turned out to be 61% on GPX4 (GDAz-3 0.5 µM 12 h after pre-treatment with MLN4924 2.5 µM for 2 h) and 45% at GPX4 (GDAz-3 0.5 µM, 12 h). Besides, the remaining activity at 1 µM was determined as 45% at GPX4 (HT-1080, HT-1080, 1 µM, 24 h) and 68% on GPX4 (HT-1080, HT-1080-siRNA-LAMP2A (LAMP2A knockdown), 1 µM, 24 h). On GPX4 (Hsc70 siRNA HT1080 cells, 1 µM, 24 h), the “GPX4 degradation in Hsc70-knockdown cells” value is recorded as “markedly abrogated”. Also, on GPX4 (Hsp70 siRNA HT1080 cells, 24 h), the “GPX4 degradation in Hsp70-knockdown cells” value is on record as “not affected”. Further, on GPX1, the “Effect on GPX1 protein” value is on record as “did not show a significant effect”. Moreover, the “Effect on SLC7A11 protein” value in the assay with SLC7A11 is listed as “did not show a significant effect”.
